What was measured:
Mycobacterium smegmatis = test: Single-point BisEDT-antibiotic combination FICI; format: cell-based; settings: Msmeg 817
Bukholderia multivorans = test: Single-point BisEDT-antibiotic combination FICI; format: cell-based; settings: Bmult 5665
[1] = tested on: Streptococcus pneumoniae (SP, PRSP); test: Single-point BisEDT-antibiotic combination FICI; settings: PRSP 5348
Escherichia coli = test: Single-point BisEDT-antibiotic combination FICI; format: cell-based; settings: EC 2232
Burkholderia cepacia = test: Single-point BisEDT-antibiotic combination FICI; format: cell-based; settings: Bcep 1756
Acinetobacter baumanii = test: Single-point BisEDT-antibiotic combination FICI; format: cell-based; settings: Abau 2594
[2] = tested on: Staphylococcus aureus (SA, MRSA); test: Single-point BisEDT-antibiotic combination FICI; format: cell-based; settings: MRSA 773
Pseudomonas aeruginosa = test: Single-point BisEDT-antibiotic combination FICI; format: cell-based; settings: PA 1380
Enterococcus faecalis = test: Single-point BisEDT-antibiotic combination FICI; format: cell-based; settings: E Fc 3121
Klebsiella pneumoniae = test: Single-point BisEDT-antibiotic combination FICI; format: cell-based; settings: KP 1231
P. aeruginosa = test: Checkerboard broth microdilution MIC and FICI; format: cell-based, Pseudomonas aeruginosa; settings: for MIC (μg/mL) Alone: compound alone
[3] = tested on: Gram-negative pathogenic bacteria; test: Checkerboard broth microdilution MIC and FICI; format: cell-based; settings: for MIC (μg/mL) Alone: compound alone; for FICI, Fractional Inhibitory Concentration Index: in combination with Cefotaxime
Procedure: The effects of combinations of microparticulate Bis-EDT and four Bis-EDT analogs prepared as described above, and other agents against representative strains of several Gram-negative pathogenic bacteria were tested. A modification of a common laboratory method was used to determine synergism (FICI≦0.5), enhancement (0.5<FICI≦1.0), antagonism (FICI>4.0) and indifference (1.0<FICI≦4.0) used fractional inhibitory concentrations (FICs) and FIC indices (FICI) (Eliopoulos G and R Moellering. 1991. Antimicrobial combinations. In Antibiotics in Laboratory Medicine, Third Edition, edited by V Lorian. Williams and Wilkins, Baltimore, Md., pp. 432-492; Odds, 2003 J. Antimicrob. Chemother. 52(1):1). The checkerboard technique was used to determine FIC indices and was employed in this study.
Stock solutions of all test articles were prepared at 40× the final target concentration in the appropriate solvent. […] The final drug concentrations in the FIC assay plates were set to bracket the MIC value of each agent for each test organism, unless the strain was totally resistant to the test agent. […] The test organisms were originally received from clinical sources, or from the American Type Culture Collection. Upon receipt, the isolates were streaked onto Tryptic Soy Agar II (TSA). Colonies were harvested from these plates and a cell suspension was prepared in an appropriate broth growth medium containing cryoprotectant. Aliquots were then frozen at −80° C. The frozen seeds of the organisms to be tested in a given assay were thawed, streaked for isolation onto TSA plates, and incubated at 35° C. All organisms were tested in Mueller Hinton II Broth (Becton Dickinson, Lot No. 9044411). The broth was prepared at 1.05× normal weight/volume to offset the 5% volume of the drugs in the final test plates.
Minimal Inhibitory Concentration (MIC) values were previously determined using the broth microdilution method for aerobic bacteria (Clinical and Laboratory Standards Institute (CLSI). Methods for Dilution Antimicrobial Susceptibility Tests for Bacteria That Grow Aerobically; Approved Standard—Eighth Edition. CLSI document M07-A8 [ISBN 1-56238-689-1]. Clinical and Laboratory Standards Institute, 940 West Valley Road, Suite 1400, Wayne, Pa. 19087-1898 USA, 2009.).
FIC values were determined using a broth microdilution method previously described (Sweeney et al., 2003 Antimicrob. Agents Chemother. 47(6):1902-1906). To prepare the test plates, automated liquid handlers (Multidrop 384, Labsystems, Helsinki, Finland; Biomek 2000 and Multimek 96, Beckman Coulter, Fullerton Calif.) were used to conduct serial dilutions and liquid transfers.
The appropriate wells of standard 96-well microdilution plates (Falcon 3918) were filled with 150 μL of the appropriate solvent in columns 2-12 using the Multidrop 384. Three hundred microliters of each secondary test drug was added to each well in Column 1 of the plates. These plates were used to prepare the drug “mother plates” which provided the serial drug dilutions for the drug combination plates. The Biomek 2000 was used to transfer 150 μL of each secondary drug solution (40×) from the wells in Column 1 of the mother plate and to make eleven 2-fold serial dilutions. Mother plates of Bis-EDT (and analogs) were serial diluted top to bottom by hand, using a multichannel pipette. Two mother plates, one for each secondary drug and one for Bis-EDT (or analogs), were combined to form a “checkerboard” pattern by transfer of equal volumes (using a multi-channel pipette) to the drug combination plate. Row H and Column 12 each contained serial dilutions of one of the agents alone for determination of the MIC.
The “daughter plates” were loaded with 180 μL of test medium using the Multidrop 384. Then, the Multimek 96 was used to transfer 10 μL of drug solution from each well of the drug combination mother plate to each corresponding well of the daughter plate in a single step.

S. aureus = test: Contaminated open fracture, rat femur critical defect model; format: in vivo; settings: BT gel 5 mg/ml, 1 ml in defect, with Cefazolin 5 mgKg^−1 s.c. twice daily 3 days, day 14
Source text: Standard errors of the mean are shown as error bars. Animals euthanized early are not excluded from the analysis, however samples from one animal in group 2 have been excluded due to gross contamination.
The aim of this study was to determine whether BTs will reduce infection in a contaminated open fracture model either on their own or with antibiotics. The contaminated rat femur critical defect model is a well-accepted model and was used for the experiments described in this Example. This model offers a standardized model for comparing various possible treatments and their effects on reducing infection and/or improving healing.
Three formulations of microparticulate BTs were produced in a clinically useful hydrogel gel form as described herein.
Two treatment arms were used: in the first arm, BT was used singularly; in the second arm BT was used in conjunction with a systemic antibiotic (ABx).
Six hours after inoculation with S. aureus, the wound was debrided, irrigated with saline and 1 ml of BT gel inserted within the defect.
Six hours after inoculation with S. aureus, the wound was debrided, irrigated with saline and 1 ml of BT gel added inserted within the defect. The antibiotic used was Cefazolin at a dose equivalent to 5 mgKg^−1 delivered via sub-cutaneous injection twice daily for a total of 3-days following the injury. The first dose was administered immediately prior to debridement.
Six hours after inoculation with S. aureus, the wound was debrided and irrigated with saline. The control animals were also treated with Cefazolin as per the regime described above.
The procedure for the in vivo rat injury model was performed as described by Chen et al. (2002 J. Orthop. Res. 20:142; 2005 J. Orthop. Res. 23:816; 2006 J. Bone Joint Surg. Am. 88:1510; 2007 J. Orthop. Trauma 21:693). The rats were anesthetized and prepped for surgery. The anterolateral aspect of the femoral shaft was exposed through a 3-cm incision. The periosteum and attached muscle was stripped from the bone. A polyacetyl plate (27×4×4 mm) was placed on the anterolateral surface of the femur. The plates were predrilled to accept 0.9-mm diameter threaded Kirschner wires. The bases of these plates were formed to fit the contour of the femoral shaft. Pilot holes were drilled through both cortices of the femur using the plate as a template and threaded Kirschner wire was inserted through the plate and femur. The notches that were 6 mm apart on the plate served as a guide for bone removal. A small oscillating saw was used to create the defect while the tissue was cooled by continuous irrigation in an effort to prevent thermal damage.
Several groups of 10 animals each were inoculated with 1×10^5 CFU of S. aureus and treated with BT alone or in combination with antibiotics 6 hours post-inoculation as described above. The groups were as follows: Bis-EDT gel; MB-11 gel; MB-8-2 gel; Bis-EDT gel & Abx; MB-11 gel & Abx; MB-8-2 gel & Abx; Control (Abx alone).
Animals were euthanized 14 days after surgery and bone and hardware sent for microbiological analysis, the results of which are shown in FIG. 7.

S. aureus strains = test: In vitro inhibition from PMMA cement bead vehicle; format: cell-based, Staphylococcus aureus; settings: with and without Tobramicin and Vancomycin
[4] = P. aeruginosa 103, in combination with Cefepime
[5] = P. aeruginosa 103, in combination with Cefotaxime
[6] = P. aeruginosa 1381, in combination with Cefepime
[7] = P. aeruginosa 1384, in combination with Cefepime
[8] = P. aeruginosa 1474, in combination with Cefepime
[9] = P. aeruginosa 1479, in combination with Cefepime
[10] = P. aeruginosa 2566, in combination with Cefepime
[11] = P. aeruginosa 2568, in combination with Cefepime

Compound	FICI, single-point BisEDT-antibiotic combination (Mycobacterium smegmatis)	MIC (μg/mL) Alone (P. aeruginosa; P. aeruginosa 103)	FICI, Fractional Inhibitory Concentration Index (P. aeruginosa; [4])	FICI, Fractional Inhibitory Concentration Index (P. aeruginosa; [5])	MIC (μg/mL) Alone (P. aeruginosa; P. aeruginosa 1381)	FICI, Fractional Inhibitory Concentration Index (P. aeruginosa; [6])	MIC (μg/mL) Alone (P. aeruginosa; P. aeruginosa 1384)	FICI, Fractional Inhibitory Concentration Index (P. aeruginosa; [7])	MIC (μg/mL) Alone (P. aeruginosa; P. aeruginosa 1474)	FICI, Fractional Inhibitory Concentration Index (P. aeruginosa; [8])	MIC (μg/mL) Alone (P. aeruginosa; P. aeruginosa 1479)	FICI, Fractional Inhibitory Concentration Index (P. aeruginosa; [9])	MIC (μg/mL) Alone (P. aeruginosa; P. aeruginosa 2566)	FICI, Fractional Inhibitory Concentration Index (P. aeruginosa; [10])	MIC (μg/mL) Alone (P. aeruginosa; P. aeruginosa 2568)	FICI, Fractional Inhibitory Concentration Index (P. aeruginosa; [11])	MIC (μg/mL) Alone ([3]; K. pneumoniae 1346)	FICI, Fractional Inhibitory Concentration Index ([3]; K. pneumoniae 1346)	MIC (μg/mL) Alone ([3]; K. pneumoniae 1355)	FICI, Fractional Inhibitory Concentration Index ([3]; K. pneumoniae 1355)	other results
NNC(=O)c1ccncc1 [Isoniazid]	0.88	–	–	–	–	–	–	–	–	–	–	–	–	–	–	–	–	–	–	–	–
[H]/N=C(/N)N[C@H]1[C@H](O)[C@@H](O)[C@H](O[C@@H]2O[C@@H](C)[C@](O)(C=O)[C@H]2O[C@@H]2O[C@@H](CO)[C@H](O)[C@@H](O)[C@@H]2NC)[C@@H](N/C(N)=N\[H])[C@@H]1O [Streptomycin]	1.13	–	–	–	–	–	–	–	–	–	–	–	–	–	–	–	–	–	–	–	FICI, single-point BisEDT-antibiotic combination (Bukholderia multivorans): 1.12; FICI, single-point BisEDT-antibiotic combination [1]: 0.66; FICI, single-point BisEDT-antibiotic combination (Escherichia coli): 1.29; FICI, single-point BisEDT-antibiotic combination (Burkholderia cepacia): 1.37; FICI, single-point BisEDT-antibiotic combination (Acinetobacter baumanii): 2.62; FICI, single-point BisEDT-antibiotic combination [2]: 0.95; FICI, single-point BisEDT-antibiotic combination (Pseudomonas aeruginosa): 1.98; FICI, single-point BisEDT-antibiotic combination (Enterococcus faecalis): 0.61; FICI, single-point BisEDT-antibiotic combination (Klebsiella pneumoniae): 1.04
Capreomycin	0.75	–	–	–	–	–	–	–	–	–	–	–	–	–	–	–	–	–	–	–	–
bismuth pyrithione/butanedithiol [MB-8-2]	–	2 µg/mL	1.11	1.11	2 µg/mL	1.23	2 µg/mL	0.80	2 µg/mL	1.11	2 µg/mL	1.23	2 µg/mL	1.23	2 µg/mL	0.98	0.5 µg/mL	1.37	0.5 µg/mL	1.37	MIC (μg/mL) Alone ([3]; K. pneumoniae 2238): 0.5 µg/mL; FICI, Fractional Inhibitory Concentration Index ([3]; K. pneumoniae 2238): 1.37; MIC (μg/mL) Alone ([3]; K. pneumoniae 2541): 1 µg/mL; FICI, Fractional Inhibitory Concentration Index ([3]; K. pneumoniae 2541): 1.12; MIC (μg/mL) Alone ([3]; K. pneumoniae 2546): 1 µg/mL; MIC (μg/mL) Alone ([3]; K. pneumoniae 2549): 1 µg/mL; FICI, Fractional Inhibitory Concentration Index ([3]; K. pneumoniae 2549): 1.12; S. aureus infection detected on hardware, effect on Cefazolin activity (S. aureus): enhanced antibiotic activity; S. aureus infection of injured bone, effect on Cefazolin activity (S. aureus): enhanced; Effect on S. aureus strains in vitro from PMMA cement beads (S. aureus strains): inhibitory effects
bismuth pyrithione/ethanedithiol [MB-11]	–	1 µg/mL	0.12	1.12	1 µg/mL	1.12	1 µg/mL	1.12	0.5 µg/mL	1.12	0.5 µg/mL	0.87	0.5 µg/mL	0.93	0.5 µg/mL	0.87	0.5 µg/mL	1.37	0.5 µg/mL	1.87	MIC (μg/mL) Alone ([3]; K. pneumoniae 2238): 0.5 µg/mL; FICI, Fractional Inhibitory Concentration Index ([3]; K. pneumoniae 2238): 1.37; MIC (μg/mL) Alone ([3]; K. pneumoniae 2541): 0.5 µg/mL; FICI, Fractional Inhibitory Concentration Index ([3]; K. pneumoniae 2541): 0.73; MIC (μg/mL) Alone ([3]; K. pneumoniae 2546): 0.5 µg/mL; FICI, Fractional Inhibitory Concentration Index ([3]; K. pneumoniae 2546): 1.37; MIC (μg/mL) Alone ([3]; K. pneumoniae 2549): 0.5 µg/mL; FICI, Fractional Inhibitory Concentration Index ([3]; K. pneumoniae 2549): 1.37; S. aureus infection detected on hardware, effect on Cefazolin activity (S. aureus): enhanced antibiotic activity; S. aureus infection of injured bone, effect on Cefazolin activity (S. aureus): enhanced; Effect on S. aureus strains in vitro from PMMA cement beads (S. aureus strains): inhibitory effects

Reference: US9408393B2, “Bismuth-thiols as antiseptics for agricultural, industrial and other uses” (Microbion Corporation, priority 2010, dated 2016)
